Test results published in US20050203169A1, “Methods and compositions for treating diseases associated with excesses in ACE” (priority 2001, published 2005).
Like-named read-outs stand apart in the source and are kept apart here.

Tests used:
[1] = tested on: patient with end-stage COPD; experiment: Outcome for patient with COPD on ramipril
serum potassium = tested on: serum potassium
Text: As described above, fludrocortisone acetate ([…]) can be used to control serum K+ concentration. […] Diabetes Technology & Therapeutics. […] This can be easily achieved using […] (fludrocortisone acetate; see Table A).

[2] = tested on: patients with kidney failure; experiment: Clinical observations in patients with kidney failure; type: in vivo, human
[3] = target: ACE (hydrophobic and hydrophilic active site) (Homo sapiens, UniProt P12821); conditions: cited from earlier work
Sequence of ACE (hydrophobic and hydrophilic active site) (P12821 30-1306): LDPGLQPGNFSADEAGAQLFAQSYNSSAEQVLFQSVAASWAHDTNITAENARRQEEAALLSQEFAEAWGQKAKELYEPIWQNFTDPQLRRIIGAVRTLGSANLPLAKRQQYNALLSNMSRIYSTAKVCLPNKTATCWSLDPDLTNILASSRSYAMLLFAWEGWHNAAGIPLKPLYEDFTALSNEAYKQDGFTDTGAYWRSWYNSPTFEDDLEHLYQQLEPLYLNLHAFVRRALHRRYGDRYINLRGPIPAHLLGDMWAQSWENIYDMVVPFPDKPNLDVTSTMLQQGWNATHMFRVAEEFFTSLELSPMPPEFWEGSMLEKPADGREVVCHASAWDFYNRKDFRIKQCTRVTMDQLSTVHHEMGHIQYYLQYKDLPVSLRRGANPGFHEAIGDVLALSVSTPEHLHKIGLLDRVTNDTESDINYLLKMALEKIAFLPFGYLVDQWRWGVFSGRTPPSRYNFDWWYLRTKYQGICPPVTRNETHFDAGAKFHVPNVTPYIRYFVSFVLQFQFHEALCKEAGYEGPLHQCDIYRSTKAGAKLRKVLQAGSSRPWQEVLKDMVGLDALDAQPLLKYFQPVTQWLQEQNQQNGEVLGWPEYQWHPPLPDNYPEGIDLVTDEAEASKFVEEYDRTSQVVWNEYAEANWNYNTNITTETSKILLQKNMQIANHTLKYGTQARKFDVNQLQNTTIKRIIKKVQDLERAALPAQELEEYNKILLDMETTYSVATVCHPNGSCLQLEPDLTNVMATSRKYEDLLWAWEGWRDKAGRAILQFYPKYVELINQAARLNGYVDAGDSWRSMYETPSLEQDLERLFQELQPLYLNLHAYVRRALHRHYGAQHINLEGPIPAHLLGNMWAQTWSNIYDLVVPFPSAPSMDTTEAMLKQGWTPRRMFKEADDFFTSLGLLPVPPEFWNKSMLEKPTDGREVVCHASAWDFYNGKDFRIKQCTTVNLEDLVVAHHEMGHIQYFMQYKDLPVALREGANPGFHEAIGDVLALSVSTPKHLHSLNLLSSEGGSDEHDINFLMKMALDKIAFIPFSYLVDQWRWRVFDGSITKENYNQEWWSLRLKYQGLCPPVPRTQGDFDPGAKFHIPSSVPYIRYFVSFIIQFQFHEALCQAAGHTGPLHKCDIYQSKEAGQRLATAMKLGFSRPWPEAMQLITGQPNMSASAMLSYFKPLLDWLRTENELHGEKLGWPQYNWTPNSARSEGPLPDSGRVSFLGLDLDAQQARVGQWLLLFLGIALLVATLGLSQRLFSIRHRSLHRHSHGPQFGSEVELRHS

circulating ACE = target: T1, circulating ACE (Homo sapiens, UniProt P12821); conditions: cited from earlier work; for circulating ACE inhibited: 5 mg dose; for inhibition of enzyme activity: equal amount (5 mg)
T1 construct: from tissue; host or cells: circulation (blood, plasma or serum) of dosed subjects
T1 sequence (P12821 30-1232 limits assumed): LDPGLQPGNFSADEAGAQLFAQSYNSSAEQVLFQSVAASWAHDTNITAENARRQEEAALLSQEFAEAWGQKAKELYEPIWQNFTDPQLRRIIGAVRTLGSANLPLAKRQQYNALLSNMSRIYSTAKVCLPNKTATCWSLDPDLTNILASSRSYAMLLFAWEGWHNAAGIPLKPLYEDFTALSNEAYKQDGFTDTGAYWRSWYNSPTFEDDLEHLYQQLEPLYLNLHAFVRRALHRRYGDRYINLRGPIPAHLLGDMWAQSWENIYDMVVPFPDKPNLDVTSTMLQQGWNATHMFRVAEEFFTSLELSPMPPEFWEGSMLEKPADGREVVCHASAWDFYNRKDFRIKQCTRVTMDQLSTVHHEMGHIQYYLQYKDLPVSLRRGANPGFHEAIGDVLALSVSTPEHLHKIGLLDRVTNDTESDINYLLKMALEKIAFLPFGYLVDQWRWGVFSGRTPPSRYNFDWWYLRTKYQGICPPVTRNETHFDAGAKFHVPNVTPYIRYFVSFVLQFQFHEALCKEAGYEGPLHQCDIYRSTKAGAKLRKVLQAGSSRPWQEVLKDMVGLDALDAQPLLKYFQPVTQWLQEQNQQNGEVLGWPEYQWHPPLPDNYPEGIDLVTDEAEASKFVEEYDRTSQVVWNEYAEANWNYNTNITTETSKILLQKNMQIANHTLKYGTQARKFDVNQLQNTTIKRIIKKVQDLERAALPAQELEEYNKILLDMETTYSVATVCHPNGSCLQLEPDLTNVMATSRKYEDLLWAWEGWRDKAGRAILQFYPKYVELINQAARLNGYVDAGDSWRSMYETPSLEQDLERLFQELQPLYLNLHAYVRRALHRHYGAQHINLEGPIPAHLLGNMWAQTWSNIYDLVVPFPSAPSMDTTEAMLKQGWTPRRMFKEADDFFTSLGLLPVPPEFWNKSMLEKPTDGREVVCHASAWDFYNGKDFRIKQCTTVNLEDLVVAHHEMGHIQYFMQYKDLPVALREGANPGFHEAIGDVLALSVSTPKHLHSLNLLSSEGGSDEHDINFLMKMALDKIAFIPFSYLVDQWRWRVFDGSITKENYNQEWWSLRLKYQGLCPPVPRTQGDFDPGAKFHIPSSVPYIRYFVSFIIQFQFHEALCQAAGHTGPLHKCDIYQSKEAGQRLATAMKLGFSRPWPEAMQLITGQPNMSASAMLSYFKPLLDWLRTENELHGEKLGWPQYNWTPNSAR

[4] = tested on: patients on ACE inhibitors; conditions: cited from earlier work
[5] = compared with ramipril; cited from earlier work
[6] = tested on: blood pressure (index of maximum tissue ACE inhibition); conditions: rats, IV; cited from earlier work
[7] = tested on: patients with CRF (serum creatinine of at least 2 mg/dl); experiment: Time to Dialysis in patients with chronic renal failure; type: in vivo, human; conditions: conventional Rx <40 mg/d
Method: Outcomes data for patients with CRF due to hypertension, determined as Time to Dialysis, for patients with serum creatinine of at least 2 mg/dl at the first clinic visit:
The following are the expected differences in outcomes for patients with CRF due to NIDDM, determined as Time to Dialysis, for patients with serum creatinine of at least 2 mg/dl at the first clinic visit:
The following are the expected differences in outcomes for patients with ADPKD, determined as Time to Dialysis, for patients with serum creatinine of at least 2 mg/di at the fist clinic visit.

hemodialysis patients = experiment: Ramipril in hemodialysis patients with ESRD due to hypertension; type: in vivo, human; conditions: 5 mg/day; two black hemodialysis patients
new cases of NIDDM = conditions: HOPE study (NEJM Jan. 21, 2000); cited from earlier work

In the case of CCOC(=O)C1=C(COCCN)NC(C)=C(C(=O)OC)C1c1ccccc1Cl (stereo not drawn) [Amlodipine], the “adverse event when added for BP control” value ([1]; COPD patient on ramipril) is reported as “Developed CHF”.
With CC(=O)OCC(=O)[C@@]1(O)CC[C@H]2[C@@H]3CCC4=CC(=O)CC[C@]4(C)[C@@]3(F)[C@@H](O)C[C@@]21C [Florinef, fludrocortisone acetate] the “volume (fluid) retention” value (serum potassium; in vivo) was “# retention and congestive heart failure. Clinical observation indicates that volume retention occurs with daily FLORINEF but not with less-than-daily use, even up to five times a week”, the “serum potassium under adequate control” value (serum potassium; same daily dose despite higher dose of ACE inhibitor) was “below 5.3 mEq/l” and the “control of serum potassium” value (serum potassium; up to 0.1 mg daily, chronic renal failure patients on high dose ACE inhibitor (e.g. 2 mg/kg/day quinapril)) was “could control serum potassium”.
For CCCCc1nc(Cl)c(CO)n1Cc1ccc(-c2ccccc2-c2nn[nH]n2)cc1 [Losartan], the “benefit when added to QUINAPRIL” value ([2]; 50 mg/day, patients with kidney failure) was “no added benefit” and the “effect on serum potassium” value (serum potassium; combined with an ACE inhibitor) was “elevation of serum potassium”.
For CCOC(=O)[C@H](CCc1ccccc1)N[C@@H](C)C(=O)N1CCC[C@H]1C(=O)O [enalapril], the “off-rate t(1/2)” value ([3]; hydrophilic site in the circulating form of the enzyme) is listed as about 4 h, the “circulating ACE inhibited” value (circulating ACE) is listed as 47% and the “inhibition of enzyme activity” value (circulating ACE) is listed as 50%.
For CCOC(=O)[C@H](CCc1ccccc1)N[C@@H](C)C(=O)N1Cc2ccccc2C[C@H]1C(=O)O [quinapril], the “off-rate t(1/2)” value ([3]; hydrophobic active site) is given as about 24 h, the dose-toxicity curve ([4]; from 5 mg/day to 80 mg/day) is given as “flat” and the “patients with elevation of mood” value ([4]; use by 12,000 patients) is given as 20%. For the same compound, the “octanol: water partition coefficient” value [5] was “higher”, the “dose at which maximum blood pressure lowering occurred” value [6] was 3 mg/kg and the “Time to Dialysis” value ([7]; ADPKD, Caucasian men) was 8.8 yr. The “Time to Dialysis” value ([7]; CRF due to NIDDM, African American men) was 3.3 yr, the “Time to Dialysis” value ([7]; CRF due to NIDDM, Caucasian men) was 2.7 yr and the “Time to Dialysis” value ([7]; CRF due to hypertension, African American men) was 3.6 yr. For the same compound, the “Time to Dialysis” value ([7]; CRF due to hypertension, Caucasian men) was 4.3 yr, the “serum creatinine on treatment” value ([2]; Patient, 20 mg/day given hs, decreased from 4.5) was 1.7 mg/di and the “slowing down kidney failure” value ([2]; comparison of quinapril with ramipril) was “superior to RAMIPRIL”.
In the case of CCOC(=O)[C@H](CCc1ccccc1)N[C@@H](C)C(=O)N1[C@H](C(=O)O)C[C@@H]2CCC[C@@H]21 [ramipril], the serum glucose (hemodialysis patients) is reported as 40 mg/dL, the serum potassium (hemodialysis patients) is reported as “above 6 mEq/l” and the FEV1 ([1]; 8/99, baseline 0.87 L) is reported as 0.83 L. The BP ([1]; currently on 600 mg/d) was 135/80, the “effect on pulmonary hypertension” value ([1]; emphysema (COPD)) was “appears to lower pulmonary hypertension” and the non-fluid weight gain ([1]; human, in vivo) was 25 lb. The hospitalization ([1]; period of over five years) was “Hospitalized for CHF but not for COPD”, the BP ([1]; two weeks after start of 2.5 mg/d, first seen with BP 104/60) was 180/110 and the “off-rate t(1/2)” value ([3]; hydrophobic active site) was about 24 h. For the same compound, the “circulating ACE inhibited” value (circulating ACE) was 97%, the “inhibition of enzyme activity” value (circulating ACE) was “greater than 95%” and the “new cases of NIDDM” value (new cases of NIDDM) was “prevention of new cases of NIDDM”.
